Assay results taken from patent publication US12037583B2, “Compositions and methods for immunooncology” (Novartis AG, priority 2015, dated 2024).

Assays:
PDCD1 = assay: NGS editing of PDCD1 by dgRNA in HEK cells stably expressing Cas9; type: cell-based, human; details: at least 3 experiments;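 also: dgRNA lipofected into Cas9-expressing HEK cells, lysed after 24 h, target amplicon sequenced, editing = reads carrying insertions or deletions as percent of all reads including wild type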
[1] = system: potential off-target genomic sites; assay: Off-target editing assessment by oligo insertion assay in Cas9-expressing HEK293 cells; type: cell-based, human; details: dual guide RNA, FIG. 63, 64
Text: A total of 34 guideRNAs (dual guide RNAs comprising the indicated targeting domain, modified or unmodified, as indicated) targeting B2M (5), TRAC (9), TRBC2 (2), PDCD1 (8), FKBP1A (5), or CIITA (5) were screened in the Cas9-expressing HEK293 cells described above in Example 1, and the results are plotted in FIG. 63 and FIG. 64.

FKBP1A = assay: S6 phosphorylation by flow cytometry with or without RAD001 after FKBP1A editing; type: cell-based, human; details: primary T cells; 2.5 nM RAD001 3 hours; FIG. 54
Protocol: After thawing, isolated human T cells were activated with CD3/CD28 beads for 3 days at a bead to cell ratio of 3:1. Cells were then electroporated with RNP containing dual guide RNA molecules (as indicated, as described above in these examples), and Cas9 protein using the Neon instrument with the 100 ul tip kit. RNPs were prepared in the following manner. crRNA and trRNA (10 ul of each at 100 uM) were heated in separate tubes to 95 degrees C. for two minutes and then cooled for 5 minutes at room temperature. […]
After electroporation, cells were then transferred into a 6-well plate with 2 ml of T cell media with beads at a 3:1 bead to cell ratio. […] The phosphorylation of S6 was detected by flow cytometry, and was used as an indication of immunosuppressing by RAD001. […] Cells were then washed twice with PBS and analyzed by flow cytometry on the Becton Dickenson LSR Fortessa using FloJo-V10 software.
After electroporation cells were treated with 2.5 nM RAD001 (upper panel) or left untreated (lower panel) and the impact on mTOR pathway inhibition was evaluated by analyzing S6 phosphorylation (pS6) by flow cytometry. […] Positive staining for pS6 (shown in the gating trace) was determined by gating above the fluorescence level seen in a control stained with isotype antibody (not shown). Quantitation of S6 phosphorylation from the flow cytometry data is shown in the graph in the lower panel. […]

CD3E = assay: NGS editing and frameshift edit of CD3E by dgRNA in HEK-293(Cas9) cells; type: cell-based, human; details: dgRNA to CD3E in HEK-293(Cas9) cells
Text: Transfection of Cas9GFP-expressing HEK293 cells (HEK-293_Cas9GFP) was used for primary screening of target specific crRNAs. In this example, target specific crRNAs were designed and selected for primary screening using defined criteria including in silico off-target detection, e.g., as described herein. Selected crRNAs were chemically synthesized and delivered in a 96 well format. HEK-293-Cas9GFP cells were transfected with target crRNAs comprising a flagpole region of SEQ ID NO: 6607 in a 1:1 ratio with stock trRNA of SEQ ID NO: 6660. The transfection was mediated using lipofection technology according to manufacturer's protocol (DharmaFECT Duo, GE LifeSciences; or RNAiMax, LifeTechnologies). Transfected cells were lysed 24 h following lipofection and editing (e.g., cleavage) was detected within lysates with the T7E1 assay and/or next generation sequencing (NGS; below).
PCR primers were first designed around the target site, and the genomic area of interest PCR amplified. Additional PCR was performed according to manufacturer's protocols (Illumina) to add the necessary chemistry for sequencing. The amplicons were then sequenced on an Illumina MiSeq instrument. The reads were then aligned to the human reference genome (e.g., hg38) after eliminating those having low quality scores. From the resulting files containing the reads mapped to the reference genome (BAM files), reads which overlap the target region of interest were selected and the number of wild type reads versus the number of reads which contain an insertion or deletion was calculated. The editing percentage was then defined as the total number of reads with insertions or deletions over the total number of reads, including wild type. To determine the pattern of insertions and/or deletions that resulted from the edit, the aligned reads with indels were selected and the number of a reads with a given indel were summed.
dgRNA molecules comprising the indicated targeting domain were chemically synthesized, and editing assessed in HEK-293 cells by NGS as described in Example 1. […] Several gRNA molecules were able to edit more than 50% of the cells, including producing a frameshift mutation in more than 50% of the cells.

CIITA [2] = assay: NGS editing and frameshift edit of CIITA by dgRNA in HEK293 cells expressing Cas9; type: cell-based, human; details: HEK293 cells stably expressing Cas9, dgRNA to CIITA; for Avg. % Edit: N = 3; for Avg. % FS: frameshift edit
Protocol: Editing of CIITA with dgRNAs targeted to the CIITA gene were assayed in HEK293 cells engineered to express Cas9, as described above in Example 1.

CIITA [3] = assay: NGS editing and frameshift edit of CIITA in CD3+ primary human T cells (RNP); type: cell-based; details: dgRNA targeting CIITA delivered as RNP to CD3+ T cells
Text: The frequency of insertions or deletions is indicated (% indels) and the percentage of these edits that result in frameshifting of the coding sequence is shown (% frameshift edits).
PBMC were isolated from human blood (Hemacare) by using centrifugation method using Ficoll. […] These cells were aliquoted and frozen. These frozen cell aliquots were then thawed and activated using CD3/CD28 beads (DynaBeads Invitrogen Cat #111.41D) at bead to cell ratio of 3:1. On day 2 or day 3 after bead activation, 200,000 cells were removed from culture for electroporation. […] Next 1 μL of 100 μM crRNA was added, mixed and incubated for 10 min at 37° C. If more than one RNP was added during the electroporation step, each RNP with a crRNA targeting a different gene was assembled separately using the above method, then combined together with the addition of Cas9 buffer in order to obtain different RNP final concentrations for different conditions. For “triple editing”, i.e. simultaneous addition of 3 RNPs targeting different genes, details of RNP quantities are provided in the figures. The assembled RNPs were then mixed with 200,000 cells in 10 ul of T Buffer (neon transfection system 10 ul Kit). Electroporation was performed by Neon electroporator using Neon® Transfection System 10 μL Kit (MPK1096) at 1600V, 10 ms, 3 pulses. […] To evaluate the editing frequency and sequence changes resulting from gene editing in the above prepared T cells, genomic DNA was isolated and subjected to sequencing. Briefly, frozen cell pellets were thawed and processed using DNeasy Blood & Tissue Kit (Qiagen, 69506) to isolate genomic DNA. Eluted DNA was used to run PCR using Titanium Taq PCR kit (Clontech Laboratories, 639211) and primers in Table 27.
PCR product was purified using QIAquick PCR Purification Kit (Qiagen, 28104). […] PCR amplicons were subjected to standard Nextera NGS library prep (Illumina) and sequenced with paired-end reads on an Illumina MiSeq sequencer.

CD3 delta and CD3 gamma = assay: Loss of surface CD3 by flow cytometry in primary human CD3+ T cells after CD3 delta / CD3 gamma RNP; type: cell-based; details: day 7 post-electroporation; anti-CD3 OKT3
Protocol: Editing of CRISPR systems containing dgRNA molecules comprising targeting domains to sequences of CD3 delta and CD3 gamma were tested for editing in primary CD3+ T cells (gRNA/Cas9 RNP delivered by electroporation) according to the methods described herein. Surface expression of CD3 after editing was assayed by flow cytometry. Briefly, edited CD3+ cells were stained with antibodies against CD3 (OKT3, BioLegend) at day 7 post-electroporation. Expression of CD3 in live cells (identified using 7AAD exclusion) relative to the un-edited controls was used to determine frequency of RNP editing. The results are reported in FIG. 65 and FIG. 66, which include flow cytometry data showing the % editing in primary human CD3+ T cells as measured by loss of surface expression of CD3.

Substance | Avg. % Edit (CIITA [2]) [%] | Avg. % FS (CIITA [2]) [%] | Editing % (CIITA [3]) [%] | Frameshift Edit % (CIITA [3]) [%] | other results
CR000902: dgRNA targeting domain to PDCD1 (guide GCCCACGACACCAACCACCA; targeting domain within dual guide RNA, chemistry not given here, further chemistry not given here; listed as Homo sapiens) |  |  |  |  | HEK (NGS) % Editing Mean (PDCD1): 72%; off-target editing in oligo insertion assay, in words [1]: no off-target editing was detected
CR002122: dgRNA targeting domain to FKBP1A (guide GUUCUUUUCACAGAUGAGUG; targeting domain within dual guide RNA, chemistry not given here, further chemistry not given here; listed as Homo sapiens) |  |  |  |  | S6 phosphorylation under RAD001, in words (FKBP1A): refractory to the inhibitory effects of the rapalog RAD001
CR002230 (guide AGGCCUCUCUACUUCCUGUG; targeting domain within dual guide RNA, chemistry not given here, further chemistry not given here; listed as Homo sapiens) |  |  |  |  | Avg. % Edit (any indel) (CD3E): 20.64%; Avg. Frameshift % (CD3E): 20.10%
CR002231 (guide GGCCUCUCUACUUCCUGUGU; targeting domain within dual guide RNA, chemistry not given here, further chemistry not given here; listed as Homo sapiens) |  |  |  |  | Avg. % Edit (any indel) (CD3E): 13.83%; Avg. Frameshift % (CD3E): 12.37%
CR003001 (guide UUCCAGGACUCCCAGCUGGA; chemistry not given here; listed as Homo sapiens) | 47.64 | 43.30 | 36.3 | 32.0 | 
CR003007: dgRNA targeting domain to CIITA (guide AUAGGACCAGAUGAAGUGAU; chemistry not given here; listed as Homo sapiens) | 43.64 | 32.22 | 31.6 | 28.8 | 
CR003013 (guide UGCCGGAAGCUCCUCUGGGA; chemistry not given here; listed as Homo sapiens) | 37.75 | 29.94 | 11.5 | 9.0 | 
CR005334: dgRNA targeting domain to CD3 delta or CD3 gamma (guide ACUUCGAUAAUGAACUUGCA; chemistry not given here; listed as Homo sapiens) |  |  |  |  | % loss of CD3 (CD3 delta and CD3 gamma): 98%
